This passage reports EC50 and inhibition results from patent publication US10285982B2, “3-(1H-pyrrolo[2,3-B]pyridin-2-yl)-1H-pyrazolo[3,4-C]pyridines and therapeutic uses thereof” (Samumed, LLC, priority 2015, dated 2019).

The EC50 is the concentration that produces a half-maximal response. A high value points to a need for much substance. Broadly, the inhibition is the percentage by which the read-out fell short of the control.

This assay relates to primary human fibroblasts derived from IPF patients (LL29 cells) treated with TGF-β1. Kind of assay: Inhibition of fibrotic process, αSMA staining in TGF-β1 treated LL29 fibroblasts. Format: cell-based. The conditions noted are these: Fibroblast; for EC50: 96 h, % αSMA positive LL29 cells, TGF-β1 20 ng/mL, 4 days; for inhibition at 10 µM: given where EC50 >10 μM, αSMA, LL29 cells, TGF-β1, read-out: percent inhibition at 10 μM. The text has this: Representative compounds were screened using primary human fibroblasts (derived from IPF patients) treated with TGF-β1 to determine their ability to inhibit the fibrotic process.
Primary human fibroblasts derived from IPF patients (LL29 cells) [^1Xiaoqiu Liu, et. al., “Fibrotic Lung Fibroblasts Show Blunted Inhibition by cAMP Due to Deficient cAMP Response Element-Binding Protein Phosphorylation”, Journal of Pharmacology and Experimental Therapeutics (2005), 315(2), 678-687; ^2Watts, K. L., et. al., “RhoA signaling modulates cyclin D1 expression in human lung fibroblasts; implications for idiopathic pulmonary fibrosis”, Respiratory Research (2006), 7(1), 88] were obtained from American Type Culture Collection (ATCC) and expanded in F12 medium supplemented with 15% Fetal Bovine Serum and Penicillin/Streptomycin.
Each compound was dissolved in DMSO as a 10 mM stock and used to prepare compound source plates. Serial dilution (1:2, 11-point dose-response curves from 10 μM to 1.87 nM) and compound transfer was performed using the ECHO 550 (Labcyte, Sunnyvale, Calif.) into 384-well clear bottom assay plates (Greiner Bio-One) with appropriate DMSO backfill for a final DMSO concentration of 0.1%. LL29 cells are plated at 1,500 cells/well in 80 μL/well F12 medium supplemented with 1% Fetal Bovine Serum. One hour after addition of the cells, TGF-β1 (Peprotech; 20 ng/mL) was added to the plates to induce fibrosis (ref. 1 and 2 above). Wells treated with TGF-β1 and containing DMSO were used as controls. Cells were incubated at 37° C. and 5% CO2 for 4 days. Following incubation for 4 days, SYTOX green nucleic acid stain (Life Technologies [Thermo Fisher Scientific]) was added to the wells at a final concentration of 1 μM and incubated at room temperature for 30 min. Cells were then fixed using 4% formaldehyde (Electron Microscopy Sciences), washed 3 times with PBS followed by blocking and permeabilization using 3% Bovine Serum Albumin (BSA; Sigma) and 0.3% Triton X-100 (Sigma) in PBS. Cells were then stained with antibody specific to α-smooth muscle actin (αSMA; Abcam) (ref. 1 and 2 above) in 3% Bovine Serum Albumin (BSA; Sigma) and 0.3% Triton X-100 (Sigma) in PBS, and incubated overnight at 4° C. Cells were then washed 3 times with PBS, followed by incubation with Alexa Flor-647 conjugated secondary antibody (Life Technologies [Thermo Fisher Scientific]) and DAPI at room temperature for 1 hour. Cells were then washed 3 times with PBS and plates were sealed for imaging. αSMA staining was imaged by excitation at 630 nm and emission at 665 nm and quantified using the Compartmental Analysis program on the CellInsight CX5 (Thermo Scientific). Dead or apoptotic cells were excluded from analysis based on positive SYTOX green staining. % of total cells positive for αSMA were counted in each well and normalized to the average of 11 wells treated with TGF-β1 on the same plate using Dotmatics' Studies Software. The normalized averages (fold change over untreated) of 3 replicate wells for each compound concentration were used to create dose-responses curves and EC50 values were calculated using non-linear regression curve fit in the Dotmatics' Studies Software. For EC50 of >10 μM, the percent inhibition at 10 μM is provided.

Molecules are shown by their SMILES.

As to `CCC(=O)Nc1cncc(-c2cc3c(-c4cc5c(-c6cccc(F)c6)ccnc5[nH]4)n[nH]c3cn2)c1` [Compound 1, N-(5-(3-(4-(3-Fluorophenyl)-1H-pyrrolo[2,3-b]pyridin-2-yl)-1H-pyrazolo [3,4-c]pyridin-5-yl)pyridin-3-yl)propionamide], the EC50 was 1620 nM. The same measure, in the same setting: with `Fc1cccc(-c2ccnc3[nH]c(-c4n[nH]c5cnc(-c6cccnc6)cc45)cc23)c1` [Compound 4, 3-(4-(3-Fluorophenyl)-1H-pyrrolo[2,3-b]pyridin-2-yl)-5-(pyridin-3-yl)-1H-pyrazolo[3,4-c]pyridine] the figure was 1030 nM; with `O=C(Nc1cncc(-c2cc3c(-c4cc5c(-c6cccc(F)c6)ccnc5[nH]4)n[nH]c3cn2)c1)c1ccccc1` [Compound 11, N-(5-(3-(4-(3-Fluorophenyl)-1H-pyrrolo[2,3-b]pyridin-2-yl)-1H-pyrazolo [3,4-c]pyridin-5-yl)pyridin-3-yl)benzamide], 4210 nM; with `CC(C)CC(=O)Nc1cncc(-c2cc3c(-c4cc5c(-c6ccc(F)cc6)ccnc5[nH]4)n[nH]c3cn2)c1` [Compound 30, N-(5-(3-(4-(4-Fluorophenyl)-1H-pyrrolo[2,3-b]pyridin-2-yl)-1H-pyrazolo [3,4-c]pyridin-5-yl)pyridin-3-yl)-3-methylbutanamide], 820 nM. Compound `CC(C)C(=O)Nc1cncc(-c2cc3c(-c4cc5c(-c6ccc(F)cc6)ccnc5[nH]4)n[nH]c3cn2)c1` [Compound 37, N-(5-(3-(4-(4-Fluorophenyl)-1H-pyrrolo[2,3-b]pyridin-2-yl)-1H-pyrazolo [3,4-c]pyridin-5-yl)pyridin-3-yl)isobutyramide] gave an EC50 of 668 nM. On the same count and under the same terms, with `O=C(Nc1cncc(-c2cc3c(-c4cc5c(-c6ccc(F)cc6)ccnc5[nH]4)n[nH]c3cn2)c1)C1CCC1` [Compound 49, N-(5-(3-(4-(4-Fluorophenyl)-1H-pyrrolo[2,3-b]pyridin-2-yl)-1H-pyrazolo [3,4-c]pyridin-5-yl)pyridin-3-yl)cyclobutanecarboxamide] the figure was 1530 nM; with `O=C(Cc1ccccc1)Nc1cncc(-c2cc3c(-c4cc5c(-c6ccccc6F)ccnc5[nH]4)n[nH]c3cn2)c1` [Compound 66, N-(5-(3-(4-(2-Fluorophenyl)-1H-pyrrolo[2,3-b]pyridin-2-yl)-1H-pyrazolo [3,4-c]pyridin-5-yl)pyridin-3-yl)-2-phenylacetamide], 501 nM. For `CN(C)Cc1cncc(-c2cc3c(-c4cc5c(-c6ccccc6F)ccnc5[nH]4)n[nH]c3cn2)c1` [Compound 69, 1-(5-(3-(4-(2-Fluorophenyl)-1H-pyrrolo[2,3-b]pyridin-2-yl)-1H-pyrazolo [3,4-c]pyridin-5-yl)pyridin-3-yl)-N,N-dimethylmethanamine], the EC50 is over 10000 nM and the inhibition at 10 µM was determined as 0%.

Consider `CCCCC(=O)Nc1cncc(-c2cc3c(-c4cc5c(-c6ccccc6F)ccnc5[nH]4)n[nH]c3cn2)c1` [Compound 75, N-(5-(3-(4-(2-Fluorophenyl)-1H-pyrrolo[2,3-b]pyridin-2-yl)-1H-pyrazolo [3,4-c]pyridin-5-yl)pyridin-3-yl)pentanamide], for which a half-maximal effect (EC50) was put at 76 nM.

Compound `O=C(Nc1cncc(-c2cc3c(-c4cc5c(-c6ccccc6F)ccnc5[nH]4)n[nH]c3cn2)c1)C1CCCCC1` [Compound 79, N-(5-(3-(4-(2-Fluorophenyl)-1H-pyrrolo[2,3-b]pyridin-2-yl)-1H-pyrazolo [3,4-c]pyridin-5-yl)pyridin-3-yl)cyclohexanecarboxamide] displayed a half-maximal effective concentration (EC50) of 1340 nM. With `CC(C)(C)C(=O)Nc1cncc(-c2cc3c(-c4cc5c(-c6cccnc6)ccnc5[nH]4)n[nH]c3cn2)c1` [Compound 92, N-(5-(3-(4-(Pyridin-3-yl)-1H-pyrrolo[2,3-b]pyridin-2-yl)-1H-pyrazolo[3,4-c]pyridin-5-yl)pyridin-3-yl)pivalamide], the EC50 was over 10000 nM and the inhibition at 10 µM came to 2.4%. The like results for `CC(C)CC(=O)Nc1cncc(-c2cc3c(-c4cc5c(-c6ccncc6)ccnc5[nH]4)n[nH]c3cn2)c1` [Compound 114, 3-Methyl-N-(5-(3-(4-(pyridin-4-yl)-1H-pyrrolo[2,3-b]pyridin-2-yl)-1H-pyrazolo[3,4-c]pyridin-5-yl)pyridin-3-yl)butanamide] were, in that order, over 10000 nM and 0%.

`Cc1ccncc1-c1cc2c(-c3cc4c(-c5ccncc5)ccnc4[nH]3)n[nH]c2cn1` [Compound 117, 5-(4-Methylpyridin-3-yl)-3-(4-(pyridin-4-yl)-1H-pyrrolo[2,3-b]pyridin-2-yl)-1H-pyrazolo[3,4-c]pyridine] registered an EC50 of 4430 nM.

On to `O=C(Cc1ccccc1)Nc1cncc(-c2cc3c(-c4cc5c(-c6ccncc6)ccnc5[nH]4)n[nH]c3cn2)c1` [Compound 122, 2-Phenyl-N-(5-(3-(4-(pyridin-4-yl)-1H-pyrrolo[2,3-b]pyridin-2-yl)-1H-pyrazolo[3,4-c]pyridin-5-yl)pyridin-3-yl)acetamide], for which the EC50 is over 10000 nM and the inhibition at 10 µM is 8.1%. Turning to `O=C(Nc1cncc(-c2cc3c(-c4cc5c(-c6ccncc6)ccnc5[nH]4)n[nH]c3cn2)c1)C1CCC1` [Compound 133, N-(5-(3-(4-(Pyridin-4-yl)-1H-pyrrolo[2,3-b]pyridin-2-yl)-1H-pyrazolo[3,4-c]pyridin-5-yl)pyridin-3-yl)cyclobutanecarboxamide], a half-maximal response (EC50) required 2600 nM. Turning to `O=C(Nc1cncc(-c2cc3c(-c4cc5c(-c6ccncc6)ccnc5[nH]4)n[nH]c3cn2)c1)C1CCCCC1` [Compound 135, N-(5-(3-(4-(Pyridin-4-yl)-1H-pyrrolo[2,3-b]pyridin-2-yl)-1H-pyrazolo[3,4-c]pyridin-5-yl)pyridin-3-yl)cyclohexanecarboxamide], the EC50 is over 10000 nM and the inhibition at 10 µM is 10.8%.

On to `c1ccc(-c2cc3c(-c4cc5c(-c6ccncc6)ccnc5[nH]4)n[nH]c3cn2)nc1` [Compound 140, 5-(Pyridin-2-yl)-3-(4-(pyridin-4-yl)-1H-pyrrolo[2,3-b]pyridin-2-yl)-1H-pyrazolo[3,4-c]pyridine], for which the EC50 was over 10000 nM and the inhibition at 10 µM worked out at 10.5%. In turn, `c1cc(N2CCCCC2)c2cc(-c3n[nH]c4cnc(-c5cncc(CN6CCCC6)c5)cc34)[nH]c2n1` [Compound 182, 3-(4-(Piperidin-1-yl)-1H-pyrrolo[2,3-b]pyridin-2-yl)-5-(5-(pyrrolidin-1-ylmethyl)pyridin-3-yl)-1H-pyrazolo[3,4-c]pyridine] returned an EC50 of 4510 nM. On the same count and under the same terms, with `O=C(Nc1cncc(-c2cc3c(-c4cc5c(N6CCCCC6)ccnc5[nH]4)n[nH]c3cn2)c1)C1CC1` [Compound 188, N-(5-(3-(4-(Piperidin-1-yl)-1H-pyrrolo[2,3-b]pyridin-2-yl)-1H-pyrazolo[3,4-c]pyridin-5-yl)pyridin-3-yl)cyclopropanecarboxamide] the figure was 1780 nM. On to `O=C(Cc1ccccc1)Nc1cncc(-c2cc3c(-c4cc5cccnc5[nH]4)n[nH]c3cn2)c1` [Compound 262, N-(5-(3-(1H-Pyrrolo[2,3-b]pyridin-2-yl)-1H-pyrazolo[3,4-c]pyridin-5-yl)pyridin-3-yl)-2-phenylacetamide], for which the EC50 was over 10000 nM and the inhibition at 10 µM came out at 45.5%. Taken in the same sequence, the figures for `O=C(Nc1cncc(-c2cc3c(-c4cc5cccnc5[nH]4)n[nH]c3cn2)c1)c1ccccc1` [Compound 263, N-(5-(3-(1H-Pyrrolo[2,3-b]pyridin-2-yl)-1H-pyrazolo[3,4-c]pyridin-5-yl)pyridin-3-yl)benzamide] were over 10000 nM and 55.3%. For `O=C(Nc1cncc(-c2cc3c(-c4cc5cccnc5[nH]4)n[nH]c3cn2)c1)C1CCCCC1` [Compound 275, N-(5-(3-(1H-Pyrrolo[2,3-b]pyridin-2-yl)-1H-pyrazolo[3,4-c]pyridin-5-yl)pyridin-3-yl)cyclohexanecarboxamide], a half-maximal effect (EC50) was put at 2520 nM.
